# Results taken from PubChem BioAssay (NCI).
#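 At the GI50, growth is halved. TGI: concentration producing complete growth inhibition.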
# Assays:
# Assay in all cases: NCI-60 cell line screen, 384-well format
# [1] = system: HCC-2998 colon
# [2] = system: COLO 205 colon
# [3] = system: NCI-H522 lung
# [4] = system: KM12 colon
# [5] = system: OVCAR-8 ovarian
# [6] = system: CCRF-CEM leukemia
# [7] = system: TK-10 renal
# [8] = system: MDA-MB-468 breast
# [9] = system: HL-60(TB) leukemia
# [10] = system: MOLT-4 leukemia
# [11] = system: HOP-62 NSCLC
# [12] = system: OVCAR-3 ovarian
# [13] = system: NCI-H322M lung
# [14] = system: HOP-92 NSCLC
# [15] = system: CAKI-1 renal
# [16] = system: LOX IMVI melanoma
# [17] = system: NCI-H23 lung
# [18] = system: RPMI-8226 leukemia
# [19] = system: DU-145 prostate
# [20] = system: OVCAR-5 ovarian
# [21] = system: M14 melanoma
# [22] = system: MCF7 breast
# [23] = system: SNB-75 CNS
# [24] = system: K-562 leukemia
# [25] = system: A498 renal
# [26] = system: HCT-116 colon
# [27] = system: NCI-H226 lung
# [28] = system: SK-MEL-28 melanoma
# [29] = system: SF-295 CNS
# [30] = system: IGROV1 ovarian
# [31] = system: U251 glioblastoma
# [32] = system: SW-620 colon
# [33] = system: HCT-15 colon
# [34] = system: HS 578T breast
# [35] = system: ACHN renal
# [36] = system: SK-OV-3 ovarian
# [37] = system: SN12C renal
# [38] = system: UACC-62 melanoma
# [39] = system: SF-539 CNS
# [40] = system: A549 NSCLC
# [41] = system: NCI-H460 NSCLC
# [42] = system: OVCAR-4 ovarian
# [43] = system: T-47D breast
# [44] = system: MDA-MB-435 melanoma
# [45] = system: NCI/ADR-RES ovarian
# [46] = system: MDA-MB-231 breast
# [47] = system: SNB-19 CNS
# [48] = system: UACC-257 melanoma
# [49] = system: SF-268 CNS
# [50] = system: EKVX NSCLC
# [51] = system: HT29 colon
# [52] = system: UO-31 renal
# [53] = system: 786-0 renal
# [54] = system: SK-MEL-5 melanoma
# [55] = system: PC-3 prostate
smiles,measurement,setting,value
CC1(C)CC(=O)c2c(C(F)(F)F)nn(-c3ccc(C(N)=O)c(NC4CCC(OC(=O)CN)CC4)c3)c2C1 (stereo not given),GI50,[1],21.4 nM
same,TGI,[1],87.4 nM
same,GI50,[2],13.7 nM
same,TGI,[2],66.7 nM
same,GI50,[3],21.2 nM
same,TGI,[3],49.3 nM
same,GI50,[4],26.6 nM
same,TGI,[4],827 nM
same,GI50,[5],21.9 nM
same,TGI,[5],48.2 nM
same,GI50,[6],18.9 nM
same,TGI,[6],53.3 nM
same,GI50,[7],51 nM
same,TGI,[7],5310 nM
same,GI50,[8],21 nM
same,TGI,[8],47.6 nM
same,GI50,[9],19.2 nM
same,TGI,[9],35.4 nM
same,GI50,[10],11.9 nM
same,TGI,[10],25.3 nM
same,GI50,[11],41 nM
same,TGI,[11],20000 nM
same,GI50,[12],25.3 nM
same,TGI,[12],88.5 nM
same,GI50,[13],44.2 nM
same,TGI,[13],20800 nM
same,GI50,[14],28.2 nM
same,TGI,[14],89.5 nM
same,GI50,[15],67.9 nM
same,TGI,[15],19600 nM
same,GI50,[16],17.4 nM
same,TGI,[16],33.6 nM
same,GI50,[17],21.2 nM
same,TGI,[17],68.3 nM
same,GI50,[18],51.2 nM
same,TGI,[18],241 nM
same,GI50,[19],48.2 nM
same,TGI,[19],975 nM
same,GI50,[20],53.6 nM
same,TGI,[20],30200 nM
same,GI50,[21],31.4 nM
same,TGI,[21],12000 nM
same,GI50,[22],25.4 nM
same,TGI,[22],843 nM
same,GI50,[23],112 nM
same,TGI,[23],506 nM
same,GI50,[24],27.4 nM
same,TGI,[24],10200 nM
same,GI50,[25],67.2 nM
same,TGI,[25],15100 nM
same,GI50,[26],41.4 nM
same,TGI,[26],13000 nM
same,GI50,[27],30.3 nM
same,TGI,[27],229 nM
same,GI50,[28],46.5 nM
same,TGI,[28],19300 nM
same,GI50,[29],37.3 nM
same,TGI,[29],140 nM
same,GI50,[30],18.9 nM
same,TGI,[30],74.3 nM
same,GI50,[31],30.4 nM
same,TGI,[31],95.2 nM
same,GI50,[32],25.8 nM
same,TGI,[32],79.4 nM
same,GI50,[33],88.8 nM
same,TGI,[33],14200 nM
same,GI50,[34],32.1 nM
same,TGI,[34],222 nM
same,GI50,[35],62 nM
same,TGI,[35],18100 nM
same,GI50,[36],41.5 nM
same,TGI,[36],29500 nM
same,GI50,[37],29.6 nM
same,TGI,[37],98.8 nM
same,GI50,[38],29.7 nM
same,TGI,[38],129 nM
same,GI50,[39],18.6 nM
same,TGI,[39],43.1 nM
same,GI50,[40],29 nM
same,TGI,[40],11000 nM
same,GI50,[41],22.1 nM
same,TGI,[41],57.3 nM
same,GI50,[42],17100 nM
same,TGI,[42],> 100000 nM
same,GI50,[43],19.5 nM
same,TGI,[43],65 nM
same,GI50,[44],67.4 nM
same,TGI,[44],38100 nM
same,GI50,[45],2350 nM
same,TGI,[45],6770 nM
same,GI50,[46],22.7 nM
same,TGI,[46],71.7 nM
same,GI50,[47],47.5 nM
same,TGI,[47],30000 nM
same,GI50,[48],52.8 nM
same,TGI,[48],21200 nM
same,GI50,[49],12.2 nM
same,TGI,[49],36.5 nM
same,GI50,[50],83.1 nM
same,TGI,[50],15600 nM
same,GI50,[51],24.6 nM
same,TGI,[51],11500 nM
same,GI50,[52],119 nM
same,TGI,[52],16300 nM
same,GI50,[53],43.9 nM
same,TGI,[53],11700 nM
same,GI50,[54],39.6 nM
same,TGI,[54],14000 nM
same,GI50,[55],33.6 nM
same,TGI,[55],135 nM
